The text below walks through data of US5189211A, “Sulfonamide derivatives” (Taisho Pharmaceutical Co., Ltd., priority 1990, dated 1993).

The subject of assay [1] is blood platelet aggregation. The assay is described as follows: In vitro test in rabbit: inhibition of U-46619-induced blood platelet aggregation in platelet rich plasma (thromboxane A2 antagonism). The following applies: rabbit PRP, U-46619 final concentration 5 μM, 37° C., 3 minutes preincubation, measured for 5 minutes, read-out: IC50 (concentration of the test drug required to bring 50% inhibition to the maximum aggregation rate). Type of assay: cell-based, male New Zealand strain house rabbits. Here is the method:
Experiment [In Vitro Test in Rabbit]
The remaining blood was centrifuged at 1500 g for 10 minutes to give platelet poor prasma (PPP). Platelet count of PRP was adjusted to 50-60×10^4 /μl by dilution of PRP by PPP.
Namely, a compound of Formula I as a test drug was dissolved in dimethyl sulfoxide and adjusted to the desired concentration with physiological saline solution.

The next assay has as its system thrombocytopenia. The assay is described as follows: Test of acute thrombocytopenia in mice (U-46619-induced). The assay is classed as in vivo, male ICR mice. The following applies: administered peritoneally 30 seconds prior to U-46619 25 μg/kg caudal vein, platelet count 30 seconds after injection, class by dose giving more than 50% inhibition. The protocol:
Experiment 2 [Test of Acute Thrombocytopenia in Mice]
Male ICR mice weighting 25 g were used (7-11 animals for each group).
Thrombocytopenia was induced by injection of an aggregation-inducing substance (U-46619) having thromboxane A2 -like action in amount of 25 μg/kg from the caudal vein. At 30 seconds after injection of U-46619, 20 μl of the blood was collected from the femoral artery, and the platelet counts were immediately measured by means of an automatic blood cell counter (CC-180A, made by Toa Iyoudenshi Co.).
The compound of Formula I was suspended in 5% gum arabic solution and administered peritoneally to the test animals 30 seconds prior to injection of U-46619. As a comparative drug, BM was tested as above.
The inhibition ratio of the thrombocytopenia was calculated by the proportion of the decrease ratio of platelet count of the group treated with the test drug to that of the group with 5% gum arabic solution, and the activity was determined by the following criterion.
+: More than 50% inhibition at a dose of 1.0 mg/kg
++: More than 50% inhibition at a dose of 0.3 mg/kg
+++: More than 50% inhibition at a dose of 0.1 mg/kg

Where [2] appears, read: Oryctolagus cuniculus, Platelet.

Read-outs that look alike come from different tables or passages of the source.

`O=C(O)COc1ccc(SCCNS(=O)(=O)c2ccc(F)cc2)cc1F` [Compound No. 105, 2-Fluoro-4-[2-(4-fluorophenylsulfonylamino)ethylthio]phenoxyacetic acid]: in assay [1] (setting [2]), the IC50 worked out at 4500 nM.

As to `O=C(O)COc1c(F)cc(SCCNS(=O)(=O)c2ccc(F)cc2)cc1F` [Compound No. 119, 2,6-Difluoro-4-[2-(4-fluorophenylsulfonylamino)ethylthio]phenoxyacetic acid], the IC50 in assay [1] (setting [2]) was found to be 580 nM.

`O=C(O)Cc1ccc(SCCNS(=O)(=O)c2ccc(Br)cc2)cc1` [Compound No. 113, 4-[2-(4-Bromophenylsulfonylamino)ethylthio]phenylacetic acid]: in assay [1] (setting [2]), the IC50 is 300 nM.

Regarding `O=C(O)COc1ccc(SCCNS(=O)(=O)c2ccc(Br)cc2)cc1F` [Compound No. 106, 2-Fluoro-4-[2-(4-bromophenylsulfonylamino)ethylthio]phenoxyacetic acid], the IC50 in assay [1] (setting [2]) turned out to be 2000 nM.

As for `Cc1ccc(S(=O)(=O)NCCSc2cc(F)c(OCC(=O)O)c(F)c2)cc1` [Compound No. 69, 2,6-Difluoro-4-[2-(4-methylphenylsulfonylamino)ethylthio]phenoxyacetic acid], the “Activity (inhibition ratio of the thrombocytopenia)” value in the assay with thrombocytopenia was “++ (More than 50% inhibition at a dose of 0.3 mg/kg)”. For the same compound, the IC50 in assay [1] (setting [2]) stood at 540 nM.

For the compound `COc1ccc(S(=O)(=O)NCCSc2ccc(CC(=O)O)cc2)cc1` [Compound No. 114, 4-[2-(4-Methoxyphenylsulfonylamino)ethylthio]phenylacetic acid], the IC50 in assay [1] (setting [2]) is 920 nM.

For `O=C(O)CCc1ccc(SCCNS(=O)(=O)c2ccc([N+](=O)[O-])cc2)cc1` [Compound No. 103, 3-{4-[2-(4-Nitrophenylsulfonylamino)ethylthio]phenyl}propionic acid], the IC50 in assay [1] (setting [2]) turned out to be 1500 nM.

For “4-[2-(4-Methylsulfonylamino)ethylthio]phenylacetic acid [Compound No. 94]”, in assay [1], the IC50 is 3100 nM.

As to `COc1ccc(S(=O)(=O)NCCSc2ccc(OCC(=O)O)c(F)c2)cc1` [Compound No. 107, 2-Fluoro-4-[2-(4-methoxyphenylsulfonylamino)ethylthio]phenoxyacetic acid], the IC50 in assay [1] (setting [2]) is 7400 nM.

`O=C(O)Cc1ccc(SCCNS(=O)(=O)c2ccc([N+](=O)[O-])cc2)cc1` [Compound No. 115, 4-[2-(4-Nitrophenylsulfonylamino)ethylthio]phenylacetic acid]: in assay [1] (setting [2]), the IC50 worked out at 930 nM.

With `COc1ccc(S(=O)(=O)NCCSc2cc(F)c(OCC(=O)O)c(F)c2)cc1` [Compound No. 125, 2,6-Difluoro-4-[2-(4-methoxyphenylsulfonylamino)ethylthio]phenoxyacetic acid], the IC50 in assay [1] (setting [2]) amounted to 670 nM.

Take `O=C(O)COc1ccc(CCNS(=O)(=O)c2ccccc2)cc1` [BM, 4-[2-(phenylsulfonylamino)ethyl]phenoxyacetic acid, reference compound]: the “Activity (inhibition ratio of the thrombocytopenia)” value in the assay on thrombocytopenia is given as “+ (More than 50% inhibition at a dose of 1.0 mg/kg)”. Further, in assay [1] (setting [2]), the IC50 came out at 12000 nM.

As for `O=C(O)COc1ccc(SCCNS(=O)(=O)c2ccc(Cl)cc2)cc1F` [Compound No. 71, 2-Fluoro-4-[2-(4-chlorophenylsulfonylamino)ethylthio]phenoxyacetic acid], the “Activity (inhibition ratio of the thrombocytopenia)” value in the assay on thrombocytopenia is on record as “+ (More than 50% inhibition at a dose of 1.0 mg/kg)”. In addition, the IC50 in assay [1] (setting [2]) stood at 1500 nM.

For the compound `CCOC(=O)COc1ccc(CSCCNS(=O)(=O)c2ccc(Cl)cc2)cc1` [Compound No. 63, Ethyl 4-[2-(4-chlorophenylsulfonylamino)ethylthiomethyl]phenoxyacetate], the IC50 in assay [1] (setting [2]) was 7300 nM.

Consider `O=C(O)CCc1ccc(SCCNS(=O)(=O)c2ccc(Cl)cc2)cc1` [Compound No. 52, 3-{4-[2-(4-chlorophenylsulfonylamino)ethylthio]phenyl}propionic acid], for which, in assay [1] (setting [2]), the IC50 is 1100 nM.

For the compound `O=C(O)COc1c(F)cc(SCCNS(=O)(=O)c2ccc([N+](=O)[O-])cc2)cc1F` [Compound No. 121, 2,6-Difluoro-4-[2-(4-nitrophenylsulfonylamino)ethylthio]phenoxyacetic acid], the IC50 in assay [1] (setting [2]) came to 750 nM.

For `O=C(O)COc1ccc(SCCNS(=O)(=O)c2ccc(Br)cc2)cc1` [Compound No. 78, 4-[2-(4-Bromophenylsulfonylamino)ethylthio]phenoxyacetic acid], the IC50 in assay [1] (setting [2]) is 5200 nM.

As to `O=C(O)COc1c(F)cc(SCCNS(=O)(=O)c2ccc(Cl)cc2)cc1F` [Compound No. 68, 2.6-Difluoro-4-[2-(4-chlorophenylsulfonylamino)ethylthio]phenoxyacetic acid], in the assay with thrombocytopenia, the “Activity (inhibition ratio of the thrombocytopenia)” value is on record as “+++ (More than 50% inhibition at a dose of 0.1 mg/kg)”. The IC50 in assay [1] (setting [2]) stood at 300 nM.

With `O=C(O)CCc1ccc(SCCNS(=O)(=O)c2ccc(F)cc2)cc1` [Compound No. 54, 3-{4-[2-(4-Fluorophenylsulfonylamino)ethylthio]phenyl}propionic acid], the IC50 in assay [1] (setting [2]) came to 2400 nM.

Consider `O=C(O)Cc1ccc(SCCNS(=O)(=O)c2ccc(Cl)cc2)cc1` [Compound No. 93, 4-[2-(4-Chlorophenylsulfonylamino)ethylthio]phenylacetic acid], for which, in the assay on thrombocytopenia, the “Activity (inhibition ratio of the thrombocytopenia)” value is recorded as “+ (More than 50% inhibition at a dose of 1.0 mg/kg)”. In assay [1] (setting [2]), the IC50 came to 1500 nM.

Consider `O=C(O)COc1c(F)cc(SCCNS(=O)(=O)c2ccccc2)cc1F` [Compound No. 67, 2,6-difluoro-4-[2-(phenylsulfonylamino)ethylthio]phenoxyacetic acid], for which, in the assay on thrombocytopenia, the “Activity (inhibition ratio of the thrombocytopenia)” value is on record as “+ (More than 50% inhibition at a dose of 1.0 mg/kg)”. In addition, the IC50 in assay [1] (setting [2]) was 1800 nM.

In the case of `O=C(O)COc1ccc(SCCNS(=O)(=O)c2ccc(Cl)cc2)cc1` [Compound No. 74, 4-[2-(4-Chlorophenylsulfonylamino)ethylthio]phenoxyacetic acid], the IC50 in assay [1] (setting [2]) came to 4500 nM.

As for `O=C(O)COc1c(F)cc(SCCNS(=O)(=O)c2ccc(Br)cc2)cc1F` [Compound No. 120, 2,6-Difluoro-4-[2-(4-bromophenylsulfonylamino)ethylthio]phenoxyacetic acid], the IC50 in assay [1] (setting [2]) amounted to 330 nM.

Turning to `O=C(O)CCc1ccc(SCCNS(=O)(=O)c2ccc(Br)cc2)cc1` [Compound No. 55, 3-{4-[2-(4-Bromophenylsulfonylamino)ethylthio]phenyl}propionic acid], in assay [1] (setting [2]), the IC50 was determined as 1700 nM.

Consider `Cc1ccc(S(=O)(=O)NCCSc2ccc(CCC(=O)O)cc2)cc1` [Compound No. 53, 3-{4-[2-(4-Methylphenylsulfonylamino)ethylthio]phenyl}propionic acid], for which, in assay [1] (setting [2]), the IC50 was determined as 5800 nM.

Take `O=C(O)Cc1ccc(SCCNS(=O)(=O)c2ccc(F)cc2)cc1` [Compound No. 112, 4-[2-(4-Fluorophenylsulfonylamino)ethylthio]phenylacetic acid]: in assay [1] (setting [2]), the IC50 was found to be 630 nM.
